Test system: phenyl-p-benzoquinone (PQ) writhing
Test: Phenyl-p-benzoquinone Assay for Analgesia
Format: in vivo, mouse
Settings: for % Inhibition (writhing): s.q.

CC(C)=C[C@H]1C[C@H](C)[C@H]2CC[C@H](C)c3c(O[C@@H]4OC[C@@H](O)[C@H](O)[C@H]4O)c(O)c(C)c1c32 [Compound I, pseudopterosin A]
ED50 (50% inhibition of writhing, n = 10 mice/dose): 4.22 mg/kg
% Inhibition (writhing) (2.0 mg/kg): 29%
% Inhibition (writhing) (3.5 mg/kg): 46%
% Inhibition (writhing) (5.0 mg/kg): 38%
% Inhibition (writhing) (7.5 mg/kg): 79%
% Inhibition (writhing) (10 mg/kg): 73%
% Inhibition (writhing) (20 mg/kg): 96%

Source: patent US4849410A, “Pseudopterosin and synthetic derivatives thereof” (The Regents of the University of California, priority 1987, dated 1989)
